From ChEMBL document CHEMBL1201862, “PubChem BioAssay data set” (2004)
Calls of active or inactive are those of the source.

Key:
[1] = Luminescence-based cell-based high throughput dose response assay to identify activators of the DAF-12 from the parasite S. stercoralis (ssDAF-12).; assay type: functional
[2] = target: T1, Oxysterols receptor LXR-beta (Homo sapiens, UniProt P55055); assay: LXR agonists, Gal4 luciferase reporter, dose response, counter-screen for ssDAF-12 agonist project, cell-based, luminescence, HEK293, S. stercoralis campaign (AID 720737); assay type: functional; details: read-out: IC50 (the source's name)
T1 sequence (P55055 whole entry): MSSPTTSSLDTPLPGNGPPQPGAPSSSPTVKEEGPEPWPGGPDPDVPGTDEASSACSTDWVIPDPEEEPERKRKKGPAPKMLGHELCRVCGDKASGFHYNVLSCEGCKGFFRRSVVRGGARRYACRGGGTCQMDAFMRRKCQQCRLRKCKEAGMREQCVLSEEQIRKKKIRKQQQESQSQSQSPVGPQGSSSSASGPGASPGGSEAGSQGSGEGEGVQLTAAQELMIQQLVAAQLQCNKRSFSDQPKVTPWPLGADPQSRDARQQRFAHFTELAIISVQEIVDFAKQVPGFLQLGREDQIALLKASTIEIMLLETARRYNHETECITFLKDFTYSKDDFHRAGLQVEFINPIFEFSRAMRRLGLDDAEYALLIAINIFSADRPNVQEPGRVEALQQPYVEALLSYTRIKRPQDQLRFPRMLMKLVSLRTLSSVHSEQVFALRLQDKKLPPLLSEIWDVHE

[3] = target: T1, Oxysterols receptor LXR-beta; assay type: functional, cell-based
cells [4] = assay: cells
[5] = P. falciparum 3D7-ScDHODH growth inhibitors, dose response, SYBR Green, dry powder samples (AID 1159570); assay type: functional, cell-based;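 also: parasite growth measured after 72 hours of compound exposure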
[6] = P. falciparum Dd2 growth inhibitors, dose response, SYBR Green, cherry-picked samples (AID 1159567); assay type: functional, cell-based
[7] = P. falciparum Dd2 growth inhibitors, dose response, SYBR Green, dry powder samples (AID 1159566); assay type: functional, cell-based;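 also: potency for growth inhibition with lower SYBR green DNA signal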
[8] = Plasmodium falciparum Dd2 Sybr green parasite growth Measured in Cell-Based and Microorganism Combination System Using Plate Reader - 2153-01_Inhibitor_Dose_DryPowder_Activity_Set3.; assay type: functional
[9] = P. falciparum ATP4 D1247Y mutant growth inhibitors, dose response, NITD609-resistant line, SYBR Green, dry powder (AID 1159571); assay type: functional, cell-based;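 also: parasites synchronized at ring stage by sorbitol before testing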
[10] = target: E3 ubiquitin-protein ligase Mdm2 (Homo sapiens, UniProt Q00987); assay: enhancers of MDM2-luciferase reporter signal, concentration-effect titration, project on inhibitors of MDM2 ubiquitin ligase, cellular assay, luminescent readout, 384-well plate format (AID 1394); assay type: functional;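 also: MDM2 E3 inhibitors raise luminescence so EC50 is for signal enhancement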
[11] = Concentration-dependent survival of SW480 colon cancer line, luminescence detection with CellTiter-Glo, half-maximal inhibitory concentration (AID 1117338); assay type: functional
[12] = RKO cell viability reduction, dose response, CellTiter-Glo luminescence (AID 1117322); assay type: functional
[13] = cytotoxicity toward HCT116 cells – cell-based, CellTiter-Glo luminescence, IC50, dose response (AID 1117332); assay type: functional; details: HCT-116
[14] = SNU-C1 cell viability reduction, dose response, CellTiter-Glo luminescence (AID 1117323); assay type: functional, cell-based
[15] = cytotoxicity toward Colo320 cells – cell-based, CellTiter-Glo luminescence, IC50, dose response (AID 1117334); assay type: functional; details: COLO 320
[16] = CellTiter-Glo luminescent dose response of DLD-1 viability loss (AID 1117352); assay type: functional
[17] = HCT116 cell viability decrease, GSK3B pretreatment – CellTiter-Glo, IC50, dose response (AID 1117339); assay type: functional; details: HCT-116
Transthyretin = Transthyretin (Homo sapiens, UniProt P02766); assay: Luminescence-based cell-based high throughput dose response assay to identify activators of Transthyretin (TTR) transcription.; assay type: functional
[18] = HepG2 cell cytotoxicity, dose response, cytotoxicity control, plate reader, dry powder, set 6 (AID 743311); assay type: functional, cell-based
cells [19] = details: HEK293;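 also: cells exposed to compound for 48 hours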
[20] = target: G-protein coupled receptor 183 (Homo sapiens, UniProt P32249); assay: SAR confirmation of small molecule antagonists of the EBI2 receptor via a luminescent beta-arrestin assa.; assay type: functional
[21] = target: Heat shock protein HSP 90-alpha (Homo sapiens, UniProt P07900); assay: Luminescence-based dose response biochemical high throughput screening assay for inhibitors of the Heat Shock Protein 90 (HSP90). [Related pubchem assays: 1831 (Summary AID.), 1846 (Confirmation screen.), 1789 (Primary screen.)]
A-375 [22] = assay: MITF: Counter assay: A375 proliferation Measured in Cell-Based System Using Plate Reader - 2084-03_Inhibitor_Dose_DryPowder_Activity. [Related pubchem assays (depositor defined):AID488944]; assay type: functional; details: Homo sapiens
A-375 [23] = assay: A375 melanoma cell viability reduction, dose response, counter-screen for MITF modulator project, cherry-pick samples, set 2 (AID 540335); assay type: functional, cell-based; details: Homo sapiens
HEK293 = assay: HEK293T cell cytotoxicity, dose response, cytotoxicity control, ATP luminescence, cherry-pick samples (AID 687005); assay type: functional, cell-based; details: Homo sapiens;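 also: cells exposed to compound for 48 hours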
[24] = HEK293 Cytotoxicity Assay Measured in Cell-Based System Using Plate Reader - 7071-01_Inhibitor_Dose_CherryPick_Activity_Set2.; assay type: functional

E3 ubiquitin-protein ligase Mdm2, sequence (Q00987 whole entry): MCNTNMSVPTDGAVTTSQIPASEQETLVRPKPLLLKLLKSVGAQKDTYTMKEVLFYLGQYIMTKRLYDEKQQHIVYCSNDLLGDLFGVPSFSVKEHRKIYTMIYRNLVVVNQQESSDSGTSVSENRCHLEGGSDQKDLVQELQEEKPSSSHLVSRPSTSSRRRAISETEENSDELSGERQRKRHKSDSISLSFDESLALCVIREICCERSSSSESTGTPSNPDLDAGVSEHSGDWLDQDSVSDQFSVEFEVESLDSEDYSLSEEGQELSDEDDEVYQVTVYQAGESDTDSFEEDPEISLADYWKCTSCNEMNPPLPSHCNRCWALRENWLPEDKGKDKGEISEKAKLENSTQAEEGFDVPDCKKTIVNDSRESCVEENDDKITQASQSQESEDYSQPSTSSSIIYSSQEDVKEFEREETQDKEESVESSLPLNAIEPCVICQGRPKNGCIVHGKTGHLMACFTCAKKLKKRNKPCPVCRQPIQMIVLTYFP
G-protein coupled receptor 183, sequence (P32249 whole entry): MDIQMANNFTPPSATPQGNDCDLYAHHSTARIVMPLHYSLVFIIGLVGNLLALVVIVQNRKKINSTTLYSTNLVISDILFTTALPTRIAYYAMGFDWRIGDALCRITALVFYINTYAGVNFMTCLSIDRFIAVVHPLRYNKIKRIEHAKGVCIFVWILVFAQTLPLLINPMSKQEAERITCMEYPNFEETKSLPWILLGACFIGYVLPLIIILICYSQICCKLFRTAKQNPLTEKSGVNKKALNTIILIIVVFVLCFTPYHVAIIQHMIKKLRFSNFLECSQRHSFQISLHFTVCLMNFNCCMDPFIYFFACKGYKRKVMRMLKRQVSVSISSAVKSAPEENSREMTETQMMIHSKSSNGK

Compound: Clc1ccc(-c2nc3n(n2)Cc2ccccc2-3)cc1
- IC50 [1]: > 67.5 µM (inactive)
- EC50 [2]: > 67.5 µM (inactive)
- EC50 [3]: > 67.5 µM (inactive)
- EC50 (cells [4]): > 67.5 µM (inactive)

Compound: CO[C@@H]1CN(C)C(=O)c2ccc(NC(=O)Nc3ccccc3F)cc2OC[C@@H](C)N(CCC(F)(F)F)C[C@H]1C
- AC50 [5]: 6.04 µM (active)
- AC50 [6]: 1.57 µM (active)
- AC50 [7]: 0.51 µM (active)
- AC50 [8]: 0.567 µM (active)
- AC50 [9]: 1.92 µM (active)

Compound: Cc1cc(C(=O)CSc2nnc(Nc3ccccc3)s2)c(C)n1CC1CCCO1 (stereo unspecified)
- EC50 [10]: 20.4 µM (not active)

Compound: C[S+](CC[C@H](N)C(=O)O)C[C@H]1O[C@@H](n2cnc3c(N)ncnc32)[C@H](O)[C@H]1O (stereo partly specified)
- IC50 [11]: > 20 µM (inactive)
- IC50 [12]: > 20 µM (inactive)
- IC50 [13]: > 20 µM (inactive)
- IC50 [14]: > 20 µM (inactive)
- IC50 [15]: > 20 µM (inactive)
- IC50 [16]: > 20 µM (inactive)
- IC50 [17]: > 20 µM (inactive)

Compound: O=C(/C(=C(\[S-])Nc1ccc(SC(F)F)cc1)[n+]1ccccc1)c1cc(Cl)ccc1Cl
- EC50 (Transthyretin): > 167 µM (inactive)

Compound: c1ccc(COc2ccc(OCCn3cnc4ccccc43)cc2)cc1
- AC50 [18]: > 52 µM (inactive)
- AC50 (cells [19]): > 52 µM (inactive)

Compound: COc1cc(CN2CCN(C(=O)/C=C/c3ccc(Br)cc3)CC2)cc(OC)c1
- IC50 [20]: 0.00364 µM (active)

Compound: COC(=O)c1ccc(COc2ccc3c(c2)CCC3)o1
- IC50 [21]: > 7 µM (active)
- AC50 (A-375 [22]): > 35 µM (active)
- AC50 (A-375 [23]): > 35 µM (active)

Compound: CCCN1C[C@H](C)[C@@H](OC)CN(C)C(=O)c2cc(NC(=O)c3cccc(F)c3)ccc2OC[C@@H]1C
- AC50 (HEK293): 19.8 µM (active)
- AC50 [24]: 19.8 µM (active)
